Experimental data as given in patent publication US20210195892A1, “COMPOSITION AND METHOD FOR MICROBIAL CONTROL ON MATERIAL SURFACES” (Microban Products Company, priority 2019, published 2021).
Structures can show the parent of a compound that is named as a salt.

Key:
Aspergillus niger (An) = assay: ASTM E2180 protocol, fungus; format: cell-based
[1] = Thermogravimetric analysis (TGA) at 10° C./min; format: physicochemical; conditions: for temperature at which volatization started: TGA 10° C./min, FIG. 2
bacteria = assay: Antibacterial efficacy of treated PP plaques (ISO 22196); format: cell-based; conditions: for bacterial efficacy per the ISO 22196 test: salts alone in PP, any active concentration up to 1%
Protocol: In addition to processing at 200° C., samples were run with PP at 250° C. to simulate the use of these GRAS acids in polymers that process at higher temperatures than polypropylene. Samples were also run using extended residence times in the injection molding machine (from the normal 30 second residence time to 120 seconds residence time) to simulate a process with a longer cycle time that would hold the polymer material at temperature for an extended period of time—the extended cycle were run at both 200° C. and 240° C.

Row | Compound | temperature at which volatization started [1] | bacterial efficacy per the ISO 22196 test (bacteria) | other results
1 | O=C(O)c1ccccc1 [GBA, benzoic acid] | approximately 100 °C | – | reduction in fungal growth (Aspergillus niger (An); incorporated into EVA): over 90%; reductions in fungal growth (Aspergillus niger (An); incorporated into PE): over 99%
2 | O=C(O)CC(O)(CC(=O)O)C(=O)O [GCA, citric acid] | 200 °C | – | antibacterial efficacy (bacteria; PP test plaques at 0.5% and 1% active level): good at the higher level but fell off at the lower level
3 | C/C=C/C=C/C(=O)[O-].[K+] [GKS, potassium sorbate] | – | no significant bacterial efficacy | –
4 | O=C([O-])c1ccccc1.[Na+] [GNB, sodium benzoate] | – | no significant bacterial efficacy | –
5 | O=C(O)CC(O)(CC(=O)O)C(=O)O [GNC, sodium citrate] | – | no significant bacterial efficacy | weight loss in TGA ([1]; TGA 10° C./min up to 275° C., attributed to water content): approximately 10%
6 | C/C=C/C=C/C(=O)O [GSA, sorbic acid] | approximately 100 °C | – | efficacy as low as (level in PP) (bacteria; further experiments, PP): 1000 ppm
